# Experimental data taken from ChEMBL document CHEMBL3797118, “New Colchicine-Derived Triazoles and Their Influence on Cytotoxicity and Microtubule Morphology” (ACS Med Chem Lett, 2016).
# Calls of active or inactive are those of the source. No cut-off for these calls is given here.
# Legend:
# Jurkat = test: Cytotoxicity against human Jurkat cells after 48 hrs by Celltiter-Glo luminescent cell viability assay; format: functional, cell-based
# [1] = Cytotoxicity against human THP1 cells after 24 hrs by Celltiter-Glo luminescent cell viability assay; format: functional, cell-based; settings: THP-1, 24 h
# HeLa = test: Cytotoxicity against human HeLa cells after 48 hrs by Celltiter-Glo luminescent cell viability assay; format: functional, cell-based
# A549 = test: Cytotoxicity against human A549 cells after 48 hrs by Celltiter-Glo luminescent cell viability assay; format: functional, cell-based; settings: A549, 48 h
# [2] = Cytotoxicity against human SKMES1 cells after 48 hrs by Celltiter-Glo luminescent cell viability assay; format: functional, cell-based; settings: SK-MES-1, 48 h
# MDA-MB-231 [3] = test: Inhibition of microtubule network formation in human MDA-MB-231 cells at 100 nM after 24 hrs by DAPI staining based immunofluorescence microscopic analysis; format: cell-based
# MDA-MB-231 [4] = test: Inhibition of microtubule network formation in human MDA-MB-231 cells assessed as centrosome declustering at 100 nM after 24 hrs by DAPI staining based immunofluorescence microscopic analysis; format: cell-based
# H1975 = test: Inhibition of microtubule network formation in human H1975 cells assessed as centrosome declustering at 500 nM after 24 hrs by DAPI staining based immunofluorescence microscopic analysis; format: cell-based
SMILES,IC50 (Jurkat),IC50 [1],also measured
COc1cc2c(c(OC)c1OC)-c1ccc(OC)c(=O)cc1[C@@H](n1cc(COC(=O)[C@H](Cc3ccccc3)NC(=O)OC(C)(C)C)nn1)CC2,15.3 nM,4.1 nM,IC50 (HeLa; read-out: IC50): 70.7 nM; IC50 (A549): 73.7 nM; IC50 [2]: 39.2 nM; inhibition (MDA-MB-231 [3]): Active; inhibition (MDA-MB-231 [4]): Active; inhibition (H1975): Active
COc1cc2c(c(OC)c1OC)-c1ccc(OC)c(=O)cc1[C@@H](n1cc(COC(=O)CCNC(=O)OC(C)(C)C)nn1)CC2,5 nM,5.7 nM,IC50 (HeLa; read-out: IC50): 20 nM; IC50 (A549): 25.4 nM; IC50 [2]: 9.6 nM; inhibition (MDA-MB-231 [3]): Active
COc1cc2c(c(OC)c1OC)-c1ccc(OC)c(=O)cc1[C@@H](n1cc(CCC(=O)OCc3ccc(F)cc3)nn1)CC2,2.9 nM,5.1 nM,IC50 (HeLa; read-out: IC50): 4.9 nM; IC50 (A549): 5.5 nM; IC50 [2]: 3.5 nM; inhibition (MDA-MB-231 [3]): Active
COc1cc2c(c(OC)c1OC)-c1ccc(OC)c(=O)cc1[C@@H](n1cc(COC(=O)[C@H](CC(C)C)NC(=O)OC(C)(C)C)nn1)CC2,–,6.6 nM,–
COc1cc2c(c(OC)c1OC)-c1ccc(OC)c(=O)cc1[C@@H](n1cc(CCCCC(=O)OCc3ccccc3)nn1)CC2,16.7 nM,35.2 nM,–
COc1cc2c(c(OC)c1OC)-c1ccc(OC)c(=O)cc1[C@@H](n1cc(CCC(=O)OCc3ccccc3)nn1)CC2,–,31 nM,–
COc1cc2c(c(OC)c1OC)-c1ccc(OC)c(=O)cc1[C@@H](n1cc(COC(=O)[C@H](Cc3c[nH]c4ccccc34)NC(=O)OC(C)(C)C)nn1)CC2,–,7.3 nM,–
CC[C@H](C)[C@H](NC(=O)OC(C)(C)C)C(=O)OCc1cn([C@H]2CCc3cc(OC)c(OC)c(OC)c3-c3ccc(OC)c(=O)cc32)nn1,–,17.3 nM,–
COc1cc2c(c(OC)c1OC)-c1ccc(OC)c(=O)cc1[C@@H](n1cc(COC(=O)[C@H](Cc3ccccc3)NC(=O)OCc3ccccc3)nn1)CC2,21.4 nM,23.3 nM,–
COc1cc2c(c(OC)c1OC)-c1ccc(OC)c(=O)cc1[C@@H](NC(C)=O)CC2 [COLCHICINE],–,20.4 nM,IC50 (HeLa; read-out: IC50): 21.8 nM; IC50 (A549): 23.9 nM; IC50 [2]: 18.6 nM; inhibition (MDA-MB-231 [3]): Active
COc1cc2c(c(OC)c1OC)-c1ccc(OC)c(=O)cc1[C@@H](n1cc(C(=O)OCc3ccccc3)nn1)CC2,–,140 nM,–
COc1cc2c(c(OC)c1OC)-c1ccc(OC)c(=O)cc1[C@@H](n1cc(CCC(=O)OCc3ccccc3F)nn1)CC2,9.7 nM,12.7 nM,–
COc1cc2c(c(OC)c1OC)-c1ccc(OC)c(=O)cc1[C@@H](n1cc(CNC(=O)OC(C)(C)C)nn1)CC2,–,23.1 nM,–
CC(=O)O[C@H]1C(=O)[C@@]2(C)[C@H]([C@H](OC(=O)c3ccccc3)[C@]3(O)C[C@H](OC(=O)[C@H](O)[C@@H](NC(=O)c4ccccc4)c4ccccc4)C(C)=C1C3(C)C)[C@]1(OC(C)=O)CO[C@@H]1C[C@@H]2O [PACLITAXEL],–,–,IC50 (HeLa): 18.9 nM; IC50 (A549): 13.2 nM; IC50 [2]: 13.5 nM; inhibition (MDA-MB-231 [3]): inactive
COc1cc2c(c(OC)c1OC)-c1ccc(OC)c(=O)cc1[C@@H](n1cc(COC(=O)[C@@H](N)Cc3ccccc3)nn1)CC2,25.1 nM,24 nM,–
COc1cc2c(c(OC)c1OC)-c1ccc(OC)c(=O)cc1[C@@H](n1cc(COC(=O)[C@H](Cc3ccccc3)NC(C)=O)nn1)CC2,84.2 nM,25.5 nM,–
COc1cc2c(c(OC)c1OC)-c1ccc(OC)c(=O)cc1[C@@H](n1cc(COC(=O)[C@H](CCSC)NC(=O)OC(C)(C)C)nn1)CC2,–,10.6 nM,–
COc1cc2c(c(OC)c1OC)-c1ccc(OC)c(=O)cc1[C@@H](n1cc(COC(=O)[C@@H](NC(=O)OC(C)(C)C)C(C)C)nn1)CC2,–,8.1 nM,–
COc1cc2c(c(OC)c1OC)-c1ccc(OC)c(=O)cc1[C@@H](n1cc(COC(=O)CCCCCNC(=O)OC(C)(C)C)nn1)CC2,9.4 nM,5.4 nM,–
COc1cc2c(c(OC)c1OC)-c1ccc(OC)c(=O)cc1[C@@H](n1cc(CCC(=O)OCc3cccc(F)c3)nn1)CC2,4.9 nM,9.3 nM,–
COc1cc2c(c(OC)c1OC)-c1ccc(OC)c(=O)cc1[C@@H](N=[N+]=[N-])CC2,–,20.9 nM,–
